Measured values taken from patent US20040105869A1, “Methods for cultivation of Kabanoanatake secreting and containing active ingredients for prophylactic and therapeutic agents against microbe-related syndromes including HIV” (priority 2002, published 2004).
≈ marks a conversion by molar mass, not a printed value.

Experiments:
Assay type in all cases: cell-based
[1] = system: H. pylori strain NCTC 11637; assay: Disc diffusion method against H. pylori; settings: Helicobacter pylori, NCTC11637, Disk
Description: (§1) Each sample was extracted using DMSO at 10 w/v % to make stock solution, further from which ten-fold serial dilution was made by DMSO, to prepare the test solution. H. pylori. strain NCTC 11637 and strain NCTC 11916 were cultured on blood agar which added 5% defibrinated horse blood to Brucella Agar (BBL) at 37° C. for 3 days, under microaerophile surroundings (N2 80%, CO2 15%, O2 5%). The strains were suspended in Brucella broth added 0.5 mg/ml of BSA fraction V (Sigma A-4503) to a concentration of 10^8 cfu/ml, to prepare inoculum organism liquid, and 0.1 ml of the liquid was smeared on BSA agar added the said BSA, after that anti-bacterial activity against H. pylori was determined by Disc method, as described below. Each test solution of 20 μl was made to absorb in a sensitivity disk (8 mm in diameter, Advantech, thin-model), placed on agar smeared with strains, cultured under microaerophile surroundings at 37° C. for 3 to 5 days. After that, growth-inhibitory zone around the disk showing more than 1 mm was regarded as positive.

[2] = system: H. pylori strain NCTC 11916; assay: Disc diffusion method against H. pylori; settings: Helicobacter pylori, NCTC11916, Disk
Description: as §1

[3] = system: H. pylori strain NCTC 11637; assay: Agar plate dilution method, control antibiotic; settings: Helicobacter pylori, NCTC11637, agar plate dilution method
[4] = system: H. pylori strain NCTC 11916; assay: Agar plate dilution method, control antibiotic; settings: Helicobacter pylori, NCTC11916, agar plate dilution method

MIC ([1]; BSA agar): 3.1 µg/mL (≈ 4.22 µM)
MIC ([1]; blood agar): 6.3 µg/mL (≈ 8.58 µM)
MIC ([2]; BSA agar): 1.6 µg/mL (≈ 2.18 µM)
MIC ([2]; blood agar): 6.3 µg/mL (≈ 8.58 µM)
MIC ([3]; BSA agar): 0.03 µg/mL (≈ 0.0409 µM)
MIC ([3]; blood agar): 0.05 µg/mL (≈ 0.0681 µM)
MIC ([4]; BSA agar): 0.03 µg/mL (≈ 0.0409 µM)
MIC ([4]; blood agar): 0.05 µg/mL (≈ 0.0681 µM)
SMILES: CC[C@H]1OC(=O)[C@H](C)[C@@H](O[C@H]2C[C@@](C)(OC)[C@@H](O)[C@H](C)O2)[C@H](C)[C@@H](O[C@@H]2O[C@H](C)C[C@H](N(C)C)[C@H]2O)[C@](C)(O)C[C@@H](C)C(=O)[C@H](C)[C@@H](O)[C@]1(C)O [Erythromycin]
